Laboratory results taken from patent publication US11260139B2, “Rapid surface disinfection method and apparatus” (priority 2011, dated 2022).

Tested on: S. aureus bacteria
Assay: survival of S. aureus bacteria on agar culture plates following 3 sec. exposure to atomized liquid
Format: cell-based
Conditions: for antimicrobial effectiveness of the liquid as solvent of the nitric oxide solution: liquid atomized with NO, rank: ethanol>isopropanol>water
Protocol: The survival fraction is the fraction of at least 100 colonies that survive the treatment. Control plates were exposed to air for 3 sec. Ethanol plates were exposed to ethanol atomized with nitrogen. 25% NO plates were exposed to ethanol atomized with 25% NO and 75% nitrogen.
Experiments were conducted on agar culture plates to compare nitric oxide concentrations ranging from 0% in nitrogen (the ‘ethanol’ experiment) to 100% NO.

[N]=O [NO, nitric oxide]
effect of NO on the antimicrobial activity of the atomized liquid (NO concentrations 0% to 100% in nitrogen compared): dramatically increases the antimicrobial activity

CCO [ethanol]
antimicrobial effectiveness of the liquid as solvent of the nitric oxide solution: effective

CC(C)O [isopropanol]
antimicrobial effectiveness of the liquid as solvent of the nitric oxide solution: effective

O [water]
antimicrobial effectiveness of the liquid as solvent of the nitric oxide solution: effective
